# According to the supplement of paper PMC10307832:
# Key:
# Experiment in all cases: relative viability (nuclei count vs DMSO), 5 days (fraction); higher = more cells survive
# SW 1573 = system: SW 1573
# Summary of the method: (§1)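 Relative viability is defined as nuclei in treated wells over nuclei in vehicle wells. Duplicate plates were run and medians reported. Lung cancer cell lines in 1536-well plates were dosed by pin tool one day after seeding, with one drug or with a fixed anchor-drug dose plus five library-drug doses (not always all listed) in √10 steps, and nuclei were counted after 5 days.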
# NCI-H3122 = system: NCI-H3122
# Summary of the method: as §1
# HCC-827 = system: HCC-827
# Summary of the method: as §1
# NCI-H2085 = system: NCI-H2085
# Summary of the method: as §1
# LK-2 = system: LK-2
# Summary of the method: as §1
# RERF-LC-KJ = system: RERF-LC-KJ
# Summary of the method: as §1
# LXF-289 = system: LXF-289
# Summary of the method: as §1
# NCI-H23 = system: NCI-H23
# Summary of the method: as §1
# LOU-NH91 = system: LOU-NH91
# Summary of the method: as §1
# NCI-H1975 = system: NCI-H1975
# Summary of the method: as §1
# NCI-H1666 = system: NCI-H1666
# Summary of the method: as §1
# EMC-BAC-2 = system: EMC-BAC-2
# Summary of the method: as §1
# EPLC-272H = system: EPLC-272H
# Summary of the method: as §1
# HCC-78 = system: HCC-78
# Summary of the method: as §1
# NCI-H322M = system: NCI-H322M
# Summary of the method: as §1
# NCI-H2126 = system: NCI-H2126
# Summary of the method: as §1
# NCI-H1563 = system: NCI-H1563
# Summary of the method: as §1
# LU99A = system: LU99A
# Summary of the method: as §1
# SK-LU-1 = system: SK-LU-1
# Summary of the method: as §1
# NCI-H2405 = system: NCI-H2405
# Summary of the method: as §1
structure (smiles),measurement,setting,value
C=C1C(=O)O[C@@H](CCCCCCCC)[C@@H]1C(=O)O [C-75] + CS(=O)(=O)CCNCc1ccc(-c2ccc3ncnc(Nc4ccc(OCc5cccc(F)c5)c(Cl)c4)c3c2)o1 [Lapatinib] (partner 2 µM),relative viability,SW 1573; first compound 0.08 µM,1.14
same,relative viability,SW 1573; first compound 0.253 µM,1.14
same,relative viability,SW 1573; first compound 0.8 µM,1.15
same,relative viability,SW 1573; first compound 2.53 µM,1.04
same,relative viability,SW 1573; first compound 8 µM,0.792
same,relative viability,NCI-H3122; first compound 0.08 µM,1.03
same,relative viability,NCI-H3122; first compound 0.253 µM,1.02
same,relative viability,NCI-H3122; first compound 0.8 µM,0.997
same,relative viability,NCI-H3122; first compound 8 µM,1.02
same,relative viability,HCC-827; first compound 0.08 µM,0.23
same,relative viability,HCC-827; first compound 0.253 µM,0.235
same,relative viability,HCC-827; first compound 0.8 µM,0.212
same,relative viability,HCC-827; first compound 2.53 µM,0.191
same,relative viability,HCC-827; first compound 8 µM,0.205
same,relative viability,NCI-H2085; first compound 0.08 µM,0.802
same,relative viability,NCI-H2085; first compound 0.253 µM,0.867
same,relative viability,NCI-H2085; first compound 0.8 µM,0.679
same,relative viability,NCI-H2085; first compound 2.53 µM,0.671
same,relative viability,NCI-H2085; first compound 8 µM,0.769
same,relative viability,LK-2; first compound 0.08 µM,1.03
same,relative viability,LK-2; first compound 0.253 µM,1.15
same,relative viability,LK-2; first compound 0.8 µM,1.08
same,relative viability,LK-2; first compound 2.53 µM,0.744
same,relative viability,LK-2; first compound 8 µM,0.622
same,relative viability,RERF-LC-KJ; first compound 0.08 µM,0.826
same,relative viability,RERF-LC-KJ; first compound 0.253 µM,0.866
same,relative viability,RERF-LC-KJ; first compound 0.8 µM,0.863
same,relative viability,RERF-LC-KJ; first compound 2.53 µM,0.872
same,relative viability,RERF-LC-KJ; first compound 8 µM,0.966
same,relative viability,LXF-289; first compound 0.08 µM,0.842
same,relative viability,LXF-289; first compound 0.253 µM,0.872
same,relative viability,LXF-289; first compound 0.8 µM,0.895
same,relative viability,LXF-289; first compound 2.53 µM,0.925
same,relative viability,LXF-289; first compound 8 µM,0.908
same,relative viability,NCI-H23; first compound 0.08 µM,1.16
same,relative viability,NCI-H23; first compound 0.253 µM,1.34
same,relative viability,NCI-H23; first compound 0.8 µM,0.83
same,relative viability,NCI-H23; first compound 2.53 µM,0.851
same,relative viability,NCI-H23; first compound 8 µM,0.546
same,relative viability,LOU-NH91; first compound 0.08 µM,0.821
same,relative viability,LOU-NH91; first compound 0.253 µM,0.833
same,relative viability,LOU-NH91; first compound 0.8 µM,0.657
same,relative viability,LOU-NH91; first compound 2.53 µM,0.533
same,relative viability,LOU-NH91; first compound 8 µM,0.716
same,relative viability,NCI-H1975; first compound 0.08 µM,0.839
same,relative viability,NCI-H1975; first compound 0.253 µM,1.04
same,relative viability,NCI-H1975; first compound 0.8 µM,0.76
same,relative viability,NCI-H1975; first compound 2.53 µM,0.879
same,relative viability,NCI-H1975; first compound 8 µM,0.895
same,relative viability,NCI-H1666; first compound 0.08 µM,0.668
same,relative viability,NCI-H1666; first compound 0.253 µM,0.872
same,relative viability,NCI-H1666; first compound 0.8 µM,0.54
same,relative viability,NCI-H1666; first compound 2.53 µM,0.549
same,relative viability,NCI-H1666; first compound 8 µM,0.471
same,relative viability,EMC-BAC-2; first compound 0.08 µM,0.897
same,relative viability,EMC-BAC-2; first compound 0.253 µM,0.85
same,relative viability,EMC-BAC-2; first compound 0.8 µM,0.882
same,relative viability,EMC-BAC-2; first compound 2.53 µM,0.721
same,relative viability,EMC-BAC-2; first compound 8 µM,0.998
same,relative viability,EPLC-272H; first compound 0.08 µM,0.974
same,relative viability,EPLC-272H; first compound 0.253 µM,0.805
same,relative viability,EPLC-272H; first compound 0.8 µM,1.01
same,relative viability,EPLC-272H; first compound 2.53 µM,0.592
same,relative viability,EPLC-272H; first compound 8 µM,0.789
same,relative viability,HCC-78; first compound 0.08 µM,1.05
same,relative viability,HCC-78; first compound 0.253 µM,0.6
same,relative viability,HCC-78; first compound 0.8 µM,0.464
same,relative viability,HCC-78; first compound 2.53 µM,0.348
same,relative viability,HCC-78; first compound 8 µM,0.756
same,relative viability,NCI-H322M; first compound 0.08 µM,0.597
same,relative viability,NCI-H322M; first compound 0.253 µM,0.744
same,relative viability,NCI-H322M; first compound 0.8 µM,0.59
same,relative viability,NCI-H322M; first compound 2.53 µM,0.568
same,relative viability,NCI-H322M; first compound 8 µM,0.629
same,relative viability,NCI-H2126; first compound 0.08 µM,0.774
same,relative viability,NCI-H2126; first compound 0.253 µM,0.914
same,relative viability,NCI-H2126; first compound 0.8 µM,0.728
same,relative viability,NCI-H2126; first compound 2.53 µM,0.62
same,relative viability,NCI-H2126; first compound 8 µM,0.758
same,relative viability,NCI-H1563; first compound 0.08 µM,0.886
same,relative viability,NCI-H1563; first compound 0.253 µM,0.979
same,relative viability,NCI-H1563; first compound 0.8 µM,0.881
same,relative viability,NCI-H1563; first compound 2.53 µM,0.998
same,relative viability,NCI-H1563; first compound 8 µM,1
same,relative viability,LU99A; first compound 0.08 µM,1.1
same,relative viability,LU99A; first compound 0.253 µM,0.959
same,relative viability,LU99A; first compound 0.8 µM,0.808
same,relative viability,LU99A; first compound 2.53 µM,0.949
same,relative viability,LU99A; first compound 8 µM,0.87
same,relative viability,SK-LU-1; first compound 0.08 µM,0.795
same,relative viability,SK-LU-1; first compound 0.253 µM,0.91
same,relative viability,SK-LU-1; first compound 0.8 µM,0.843
same,relative viability,SK-LU-1; first compound 2.53 µM,0.795
same,relative viability,SK-LU-1; first compound 8 µM,0.577
same,relative viability,NCI-H2405; first compound 0.08 µM,1.07
same,relative viability,NCI-H2405; first compound 0.253 µM,0.772
same,relative viability,NCI-H2405; first compound 0.8 µM,1
same,relative viability,NCI-H2405; first compound 2.53 µM,1.07
same,relative viability,NCI-H2405; first compound 8 µM,1.06
